Patent US20220296595A1, “CDK INHIBITORS” (QILU REGOR THERAPEUTICS INC., priority 2019, published 2022)
Read-outs that look alike come from different tables or passages of the source.

Legend:
[1] = test system: T47D breast cancer cells; experiment: Anti-proliferation assay in T47D cell (Cyquant, day 6); assay type: cell-based, human; settings: anti-proliferation, T47D cells, read-out: T47D IC50
Procedure, shortened: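 A ten-point, 3-fold compound series (10 μM down to 0.51 nM) was applied to overnight-settled cells in 10% FBS RPMI 1640, and DNA content was read by CyQuant fluorescence 6 days later. An untreated plate read before dosing served as baseline for subtraction before IC50 fitting.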

[2] = molecular target: T1, CDK6/CyclinD3 (Homo sapiens, UniProt Q00534); experiment: Assay for inhibition of CDK6/CyclinD3 (Caliper microfluidic kinase assay); assay type: biochemical
T1 construct: purchased Carna 04-107
T1 sequence (Q00534 whole entry): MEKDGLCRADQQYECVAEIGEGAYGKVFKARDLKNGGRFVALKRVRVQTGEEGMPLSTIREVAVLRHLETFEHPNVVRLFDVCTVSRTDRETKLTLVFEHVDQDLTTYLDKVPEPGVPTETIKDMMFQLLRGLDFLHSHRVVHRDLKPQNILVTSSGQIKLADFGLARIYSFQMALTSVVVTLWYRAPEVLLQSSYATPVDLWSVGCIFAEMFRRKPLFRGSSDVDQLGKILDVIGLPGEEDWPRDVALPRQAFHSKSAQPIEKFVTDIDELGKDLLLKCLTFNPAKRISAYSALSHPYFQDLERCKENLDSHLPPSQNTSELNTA
T1 sequence (P30281 whole entry partner): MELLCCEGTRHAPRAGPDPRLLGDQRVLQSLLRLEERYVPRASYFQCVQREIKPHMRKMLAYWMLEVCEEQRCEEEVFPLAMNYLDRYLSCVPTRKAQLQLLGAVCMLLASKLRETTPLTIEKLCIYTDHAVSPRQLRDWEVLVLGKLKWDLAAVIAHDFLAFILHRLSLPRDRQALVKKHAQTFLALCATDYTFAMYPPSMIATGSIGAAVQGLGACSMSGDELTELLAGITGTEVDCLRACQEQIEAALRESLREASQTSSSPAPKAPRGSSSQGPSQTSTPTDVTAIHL
Protocol: The CDK6 enzyme assay for IC50 determination was performed as follows. Microfluidic kinase detection technology (Caliper) was used to monitor the phosphorylation of peptide substrate by CDK6/CyclinD3. The total reaction volume is 15 μL containing buffer A (100 mM HEPES (pH 7.5), 0.1% BSA, 0.01% Triton X-100, 1 mM DTT, 10 mM MgCl2, 10 μM Sodium Orthovanadate, 10 μM Beta-Glycerophosphate), 300 μM ATP, 2 nM CDK6/CyclinD3 (Carna, 04-107), 1 μM FL-34 (5-FAM-[…]), and the test compound at appropriate dilutions in DMSO. All components were added to the 384-well plate (Corning, 4514), and incubated at Room Temperature for 3 hours. The reaction was terminated by addition of 15 μL Stop Buffer (180 mM HEPES (pH 7.5), 20 mM EDTA, Coating-3 reagent (PerkinElmer, 760050)). The plate was then loaded on Caliper EZ Reader (EZ Reader II, PerkinElmer, HD-4HYSG2772), and the reaction mixtures including substrate and product were sipped into the microfluidic chip for separation and detection. The IC50 values of the test compound were determined by fitting the inhibition curves by 4 parameter sigmoidal dose-response model using the Xlfit5/GraphPad Prism 5 software.

[3] = molecular target: T2, CDK2/CyclinE1 (Homo sapiens, UniProt P24941); experiment: Assay for inhibition of CDK2/CyclinE1 (Caliper microfluidic kinase assay); assay type: biochemical
T2 construct: purchased SignalChem C29-18G
Procedure, shortened: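 IC50 came from 4-parameter fits of substrate-to-product conversion, separated on a Caliper chip after an EDTA stop. Reactions ran 3 hours at room temperature with 100 μM ATP, 5 μM fluorescent FL-18 peptide and 5 nM enzyme in 100 mM HEPES pH 7.5, 10 mM MgCl2.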

[4] = molecular target: T3, CDK4/CyclinD1 (Homo sapiens, UniProt P11802); experiment: Assay for inhibition of CDK4/CyclinD1 (Caliper microfluidic kinase assay); assay type: biochemical
T3 construct: purchased Thermofisher PR8064A
T3 sequence (P11802 whole entry): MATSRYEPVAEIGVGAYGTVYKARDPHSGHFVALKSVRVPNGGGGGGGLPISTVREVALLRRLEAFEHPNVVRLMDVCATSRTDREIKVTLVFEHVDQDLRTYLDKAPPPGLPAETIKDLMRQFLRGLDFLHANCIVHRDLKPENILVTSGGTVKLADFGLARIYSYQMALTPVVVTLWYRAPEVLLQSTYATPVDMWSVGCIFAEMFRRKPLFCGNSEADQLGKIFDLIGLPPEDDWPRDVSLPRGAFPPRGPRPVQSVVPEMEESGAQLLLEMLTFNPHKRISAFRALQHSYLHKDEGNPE
T3 sequence (P24385 whole entry partner): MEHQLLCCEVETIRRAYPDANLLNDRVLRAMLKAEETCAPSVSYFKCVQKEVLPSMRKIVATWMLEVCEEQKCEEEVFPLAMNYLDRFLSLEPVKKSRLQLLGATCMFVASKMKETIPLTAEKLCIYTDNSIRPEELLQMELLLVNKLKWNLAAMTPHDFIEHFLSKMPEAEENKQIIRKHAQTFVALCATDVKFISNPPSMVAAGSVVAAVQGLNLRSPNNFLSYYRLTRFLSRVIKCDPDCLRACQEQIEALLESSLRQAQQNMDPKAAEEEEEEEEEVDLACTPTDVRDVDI
Procedure, shortened: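 IC50 was obtained by 4-parameter sigmoidal fitting after 1 nM CDK4/CyclinD1, 200 μM ATP and 1 μM FL-34 substrate reacted for 3 h at room temperature (pH 7.5 HEPES, 10 mM MgCl2). After EDTA quench, substrate and product were separated and detected on a Caliper microfluidic chip.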

[5] = CDK2/CyclinE1, 100 μM ATP, read-out: CDK2 IC50
[6] = CDK2/CyclinE1, read-out: CDK2 IC50

| Structure (SMILES) | IC50 ([1]; Homo sapiens, T47D) [nM] | IC50 ([2]; CDK6/CyclinD3, 300 μM ATP) [nM] | IC50 [3, 5] [nM] | IC50 ([4]; CDK4/CyclinD1, 200 μM ATP) [nM] | IC50 ([2]; CDK6/CyclinD3) [nM] | IC50 [3, 6] [nM] | IC50 ([4]; CDK4/CyclinD1) [nM] | IC50 [1] [nM] | IC50 [3] [nM] |
| --- | --- | --- | --- | --- | --- | --- | --- | --- | --- |
| CC(C)c1cnn2ccc(-c3ccnc(Nc4ccc(N5CCNCC5=O)cc4)n3)cc12 [compound 226] | < 100 | < 10 | < 10 | < 10 | – | – | – | – | – |
| Cc1nn2ccc(-c3ccnc(Nc4ccc(N5CCC(N(C)C)CC5=O)cc4)n3)cc2c1C(C)C (stereo not drawn) [compound 177] | – | < 10 | < 10 | < 10 | – | – | – | – | – |
| CC(C)c1cnn2ccc(-c3ccnc(Nc4ccc(N5CCC(N(C)C)CC5=O)cn4)n3)cc12 (stereo not drawn) [Synthetic Example 16] | – | < 10 | 10 to 100 | < 10 | – | – | – | – | – |
| CC(C)c1cnn2ccc(-c3nc(Nc4ccc(CN5CCN6CCCC6C5)cn4)ncc3F)cc12 (stereo not drawn) [compound 8] | > 1000 | 100 to 1000 | > 1000 | 10 to 100 | – | – | – | – | – |
| COc1nc(-c2nc(Nc3ccc(N4CCN(CC(F)(F)F)CC4=O)cn3)ncc2F)cc2c1nc(C)n2C(C)C [compound 124] | 100 to 500 | 10 to 100 | > 1000 | < 10 | – | – | – | – | – |
| CC(C)(C)c1cnn2ccc(-c3ccnc(Nc4ccc(N5CCNCC5=O)cc4F)n3)cc12 [compound 225] | – | 10 to 100 | < 10 | < 10 | – | – | – | – | – |
| COc1nc(-c2nc(Nc3ccc(N4CCN(C5CNC5)CC4=O)cn3)ncc2F)cc2c1nc(C)n2C(C)C [Synthetic Example 138] | – | 10 to 100 | 100 to 1000 | < 10 | – | – | – | – | – |
| COc1nc(-c2nc(NC3CCN(S(C)(=O)=O)CC3)ncc2F)cc2c1nc(C)n2C(C)C [compound 102] | – | – | – | – | 100 to 1000 | 100 to 1000 | 10 to 100 | – | – |
| CC(C)c1cnn2ccc(-c3ccnc(Nc4ccc(N5CCC(N(C)C)CC5)cn4)n3)cc12 (single isomer, unassigned) [Synthetic Example 161, N-[5-[4-(dimethylamino)-1-piperidyl]-2-pyridyl]-4-(3-isopropylpyrazolo[1,5-a]pyridin-5-yl)pyrimidin-2-amine] | – | < 10 | < 10 | < 10 | – | – | – | < 100 | – |
| O=C1COCCN1c1ccc(Nc2ncc(F)c(-c3ccn4ncc(C5CCOCC5)c4c3)n2)nc1 [compound 18] | 500 to 1000 | 100 to 1000 | – | 10 to 100 | – | – | – | – | – |
| Cc1nc2c(F)nc(-c3ccnc(Nc4ccc(S(N)(=O)=O)cc4)n3)cc2n1C(C)C [compound 288] | – | 10 to 100 | < 10 | 10 to 100 | – | – | – | – | – |
| CC(C)c1cnn2ccc(-c3ccnc(Nc4ccc(N5CCC(O)CC5=O)cn4)n3)cc12 (stereo not drawn) [compound 183] | – | 10 to 100 | 10 to 100 | 10 to 100 | – | – | – | – | – |
| CNC1CCCN(c2ccc(Nc3nccc(-c4ccn5nc(C)c(C(C)C)c5c4)n3)cc2)C1=O (stereo not drawn) [compound 217] | < 100 | < 10 | 10 to 100 | < 10 | – | – | – | – | – |
| CC(C)c1cnn2ccc(-c3nc(Nc4ccc(N5CCOCC5=O)c(C(F)(F)F)c4)ncc3F)cc12 [compound 23] | 500 to 1000 | 10 to 100 | – | 10 to 100 | – | – | – | – | – |
| Cc1nc(Nc2ncc(F)c(-c3ccn4ncc(C(C)C)c4c3)n2)ccc1C(=O)N1CCC(NC2CC2)CC1 [compound 11] | 100 to 500 | 10 to 100 | 100 to 1000 | 10 to 100 | – | – | – | – | – |
| CCN1CCN(Cc2ccc(Nc3ncc(F)c(-c4cc5c(C(C)C)n(C)nc5cn4)n3)nc2)CC1 [Synthetic Example 58] | > 1000 | > 1000 | – | 100 to 1000 | – | – | – | – | – |
| CC(C)N1CCN(c2ccc(Nc3nccc(-c4cc5c(ncn5C(C)C)c(F)n4)n3)nc2)CC1 [Synthetic Example 287] | – | 10 to 100 | 100 to 1000 | < 10 | – | – | – | – | – |
| CC(C)c1cnn2ccc(-c3ccnc(Nc4ccc(N5CCNCC5=O)cc4F)n3)cc12 [compound 224] | – | 10 to 100 | < 10 | < 10 | – | – | – | – | – |
| CC(C)c1cnn2ccc(-c3nc(Nc4ccc(N5CCC(N(C)C)CC5)cn4)ncc3F)cc12 [compound 9] | 100 to 500 | 10 to 100 | 100 to 1000 | < 10 | – | – | – | – | – |
| CC(C)n1cnc2c(F)nc(-c3ccnc(Nc4ccc(S(N)(=O)=O)cc4)n3)cc21 [compound 297] | – | 10 to 100 | < 10 | < 10 | – | – | – | – | – |

| Structure (SMILES) | IC50 ([1]; Homo sapiens, T47D) [nM] | IC50 ([2]; CDK6/CyclinD3, 300 μM ATP) [nM] | IC50 [3, 5] [nM] | IC50 ([4]; CDK4/CyclinD1, 200 μM ATP) [nM] | IC50 ([2]; CDK6/CyclinD3) [nM] | IC50 [3, 6] [nM] | IC50 ([4]; CDK4/CyclinD1) [nM] | IC50 [1] [nM] | IC50 [3] [nM] |
| --- | --- | --- | --- | --- | --- | --- | --- | --- | --- |
| COc1nc(-c2nc(Nc3ccc(N4CCN(C5CCNCC5)CC4=O)cn3)ncc2F)cc2c1nc(C)n2C(C)C [compound 139] | – | < 10 | > 1000 | < 10 | – | – | – | – | – |
| COc1nc(-c2nc(Nc3ccc(N4CCOCC4=O)cn3)ncc2C)cc2c1nc(C)n2C(C)C [compound 75] | < 100 | – | – | – | 10 to 100 | 100 to 1000 | < 10 | – | – |
| CC(C)c1cnn2ccc(-c3ccnc(Nc4ccc(N5CCC(C)(N)CC5=O)cc4F)n3)cc12 (stereo not drawn) [compound 213] | – | 10 to 100 | < 10 | < 10 | – | – | – | – | – |
| CNC1CCCN(c2ccc(Nc3nccc(-c4ccn5ncc(C(C)C)c5c4)n3)cc2)C1=O (stereo not drawn) [compound 215] | < 100 | < 10 | < 10 | < 10 | – | – | – | – | – |
| CC(C)c1cnn2ccc(-c3nc(Nc4ccc(N5CCOCC5=O)cn4)ncc3F)cc12 [compound 2] | < 100 | 10 to 100 | < 10 | < 10 | – | – | – | – | – |
| COc1nc(-c2nc(Nc3ccc(C(=O)N4CCC(NC5CC5)CC4)c(C)n3)ncc2F)cc2c1nc(C)n2C(C)C [compound 86] | 100 to 500 | – | – | – | 10 to 100 | > 1000 | 10 to 100 | – | – |
| COc1nc(-c2nc(Nc3ccc(N4CCN(CCS(C)(=O)=O)CC4=O)cn3)ncc2F)cc2c1nc(C)n2C(C)C [Synthetic Example 121] | – | 10 to 100 | > 1000 | < 10 | – | – | – | – | – |
| CC(C)c1cnn2ccc(-c3nc(Nc4ccc(N5CCOCC5)cn4)ncc3F)cc12 [compound 13] | 100 to 500 | 10 to 100 | – | 10 to 100 | – | – | – | – | – |
| CC(C)c1cnn2ccc(-c3nc(NC4CCN(S(C)(=O)=O)CC4)ncc3F)cc12 [Synthetic Example 10] | 100 to 500 | 100 to 1000 | 10 to 100 | 10 to 100 | – | – | – | – | – |
| COc1nc(-c2nc(Nc3ccc(N4CCOCC4=O)cc3F)ncc2F)cc2c1nc(C)n2C(C)C [compound 92] | – | – | – | – | 10 to 100 | 10 to 100 | < 10 | – | – |
| CC(C)c1cnn2ccc(-c3ccnc(Nc4ccc5c(c4)CS(=O)(=O)C5)n3)cc12 [compound 179] | – | < 10 | < 10 | < 10 | – | – | – | – | – |
| CCn1cnc2c(OC)nc(-c3nc(Nc4ccc(N5CCOCC5=O)cn4)ncc3F)cc21 [compound 84] | – | – | – | – | 100 to 1000 | > 1000 | 10 to 100 | – | – |
| COc1nc(-c2nc(Nc3ccc(N4CCNCC4=O)cn3)ncc2F)cc2c1nc(C)n2C(C)C [compound 107] | 100 to 500 | 10 to 100 | > 1000 | < 10 | – | – | – | – | – |
| CC(C)c1cnn2ccc(-c3nc(Nc4ccc(CN5CCOCC5=O)cn4)ncc3F)cc12 [compound 15] | 500 to 1000 | 100 to 1000 | 100 to 1000 | 10 to 100 | – | – | – | – | – |
| CC(C)n1cnc2c(F)nc(-c3ccnc(Nc4ccc(N5CCC(C)(N)CC5=O)cc4F)n3)cc21 (stereo not drawn) [compound 292] | – | < 10 | < 10 | < 10 | – | – | – | – | – |
| CNC1CCN(C(=O)c2ccc(Nc3nccc(-c4ccn5ncc(C(C)C)c5c4)n3)cc2)C1 (stereo not drawn) [compound 189] | – | < 10 | – | < 10 | – | – | – | – | < 10 |
| CCN1CCN(Cc2ccc(Nc3ncc(F)c(-c4cc5c(nc(C)n5C(C)C)c(OC)n4)n3)nc2)CC1 [compound 95] | – | – | – | – | 10 to 100 | > 1000 | 10 to 100 | – | – |
| CCN1CCN(Cc2ccc(Nc3ncc(F)c(-c4cn5c(C(C)C)cnc5c(OC)n4)n3)nc2)CC1 [Synthetic Example 60] | – | 100 to 1000 | – | 10 to 100 | – | – | – | – | – |
| CCN1CCN(Cc2ccc(Nc3ncc(F)c(-c4cc5c(ncn5C(C)C)c(OC)n4)n3)nc2)CC1 [compound 87] | 100 to 500 | – | – | – | 10 to 100 | – | < 10 | – | – |
| CCN1CCN(Cc2cccc(Nc3ncc(F)c(-c4ccn5ncc(C(C)C)c5c4)n3)n2)CC1 [compound 24] | – | > 1000 | – | 100 to 1000 | – | – | – | – | – |
